Consider 12 molecules from ChEMBL document CHEMBL5113480, “Discovery of novel biphenyl-substituted pyridone derivatives as potent non-nucleoside reverse transcriptase inhibitors with promising oral bioavailability” (Eur J Med Chem, 2022).

Series [1] has as its system Human immunodeficiency virus 1. Put plainly: Antiviral activity against HIV-1 ROD infected in human MT4 cells assessed as reduction in viral replication by MTT assay. It counts as functional, organism-based.
The nature of series [2]: Cytotoxicity against human MT4 cells assessed as reduction on cell growth by MTT assay. The class given is toxicity, cell-based. Background: Tetrazolium assays rely on reduction of a dye to a coloured formazan, in cell work by metabolically active cells.
A short description of series [3]: Selectivity index, ratio of CC50 for cytotoxicity against human MT4 cells to EC50 of Anti-HIV activity against HIV-1 IIIB infected in human MT4 cells. It counts as toxicity, cell-based. Conditions: read-out: Ratio CC50/EC50.
The test system of series [4] is Human immunodeficiency virus 1. Put plainly: Antiviral activity against HIV-1 L100I mutant infected in human MT4 cells assessed as reduction in viral replication by MTT assay. It counts as functional, organism-based. Conditions: Human immunodeficiency virus 1, L100I mutant.
The subject of series [5] is Human immunodeficiency virus 1. Put plainly: Antiviral activity against HIV-1 K103N mutant infected in human MT4 cells assessed as reduction in viral replication by MTT assay. The class given is functional, organism-based. Conditions: Human immunodeficiency virus 1, K103N mutant.
Series [6] has as its system Human immunodeficiency virus 1. Put plainly: Antiviral activity against HIV-1 Y181C mutant infected in human MT4 cells assessed as reduction in viral replication by MTT assay. It counts as functional, organism-based. Conditions: Human immunodeficiency virus 1, Y181C mutant.
In series [7] the test system is Human immunodeficiency virus 1. Put plainly: Antiviral activity against HIV-1 Y188L mutant infected in human MT4 cells assessed as reduction in viral replication by MTT assay. The following applies: Human immunodeficiency virus 1, Y188L mutant. The class given is functional, organism-based.
Series [8] relates to Human immunodeficiency virus 1. Put plainly: Antiviral activity against HIV-1 E138K mutant infected in human MT4 cells assessed as reduction in viral replication by MTT assay. Conditions: Human immunodeficiency virus 1, E138K mutant. The class given is functional, organism-based.
The test system of series [9] is Human immunodeficiency virus 1. Put plainly: Antiviral activity against HIV-1 F227L-V106A mutant infected in human MT4 cells assessed as reduction in viral replication by MTT assay. The class given is functional, organism-based. The following applies: Human immunodeficiency virus 1, F227L-V106A mutant.
Series [10] concerns Human immunodeficiency virus 1. Put plainly: Antiviral activity against HIV-1 K103N-Y181C mutant infected in human MT4 cells assessed as reduction in viral replication by MTT assay. The class given is functional, organism-based. The following applies: Human immunodeficiency virus 1, K103N-Y181C mutant.
Series [11] has as its target Human immunodeficiency virus type 1 reverse transcriptase (Human immunodeficiency virus 1, UniProt Q72547). Put plainly: Inhibition of wild type HIV-1 Reverse transcriptase.
Series [12] addresses Voltage-gated inwardly rectifying potassium channel KCNH2 (Homo sapiens, UniProt Q12809). Put plainly: Inhibition of human ERG potassium channel expressed in CHO cells by automated patch clamp electrophysiological assay. The class given is toxicity, cell-based. (In patch-clamp work, channel activity is measured electrically.)
Another series has as its target Cytochrome P450 2D6 (Homo sapiens, UniProt P10635). Put plainly: Inhibition of CYP2D6 (unknown origin). The class given is ADME.
Series [13] deals with Human immunodeficiency virus 1. Put plainly: Antiviral activity against HIV-1 IIIB infected in human MT4 cells assessed as reduction in viral replication by MTT assay. The class given is functional, organism-based. Conditions: Human immunodeficiency virus 1, IIIB.

Broadly, the EC50 is the concentration giving half of the maximal effect. What is called CC50 is the concentration at which the toxic effect on the cells reaches its halfway point. In general, IC50 refers to the concentration at which inhibition is half-maximal.

Chain of Voltage-gated inwardly rectifying potassium channel KCNH2 (Q12809 whole entry): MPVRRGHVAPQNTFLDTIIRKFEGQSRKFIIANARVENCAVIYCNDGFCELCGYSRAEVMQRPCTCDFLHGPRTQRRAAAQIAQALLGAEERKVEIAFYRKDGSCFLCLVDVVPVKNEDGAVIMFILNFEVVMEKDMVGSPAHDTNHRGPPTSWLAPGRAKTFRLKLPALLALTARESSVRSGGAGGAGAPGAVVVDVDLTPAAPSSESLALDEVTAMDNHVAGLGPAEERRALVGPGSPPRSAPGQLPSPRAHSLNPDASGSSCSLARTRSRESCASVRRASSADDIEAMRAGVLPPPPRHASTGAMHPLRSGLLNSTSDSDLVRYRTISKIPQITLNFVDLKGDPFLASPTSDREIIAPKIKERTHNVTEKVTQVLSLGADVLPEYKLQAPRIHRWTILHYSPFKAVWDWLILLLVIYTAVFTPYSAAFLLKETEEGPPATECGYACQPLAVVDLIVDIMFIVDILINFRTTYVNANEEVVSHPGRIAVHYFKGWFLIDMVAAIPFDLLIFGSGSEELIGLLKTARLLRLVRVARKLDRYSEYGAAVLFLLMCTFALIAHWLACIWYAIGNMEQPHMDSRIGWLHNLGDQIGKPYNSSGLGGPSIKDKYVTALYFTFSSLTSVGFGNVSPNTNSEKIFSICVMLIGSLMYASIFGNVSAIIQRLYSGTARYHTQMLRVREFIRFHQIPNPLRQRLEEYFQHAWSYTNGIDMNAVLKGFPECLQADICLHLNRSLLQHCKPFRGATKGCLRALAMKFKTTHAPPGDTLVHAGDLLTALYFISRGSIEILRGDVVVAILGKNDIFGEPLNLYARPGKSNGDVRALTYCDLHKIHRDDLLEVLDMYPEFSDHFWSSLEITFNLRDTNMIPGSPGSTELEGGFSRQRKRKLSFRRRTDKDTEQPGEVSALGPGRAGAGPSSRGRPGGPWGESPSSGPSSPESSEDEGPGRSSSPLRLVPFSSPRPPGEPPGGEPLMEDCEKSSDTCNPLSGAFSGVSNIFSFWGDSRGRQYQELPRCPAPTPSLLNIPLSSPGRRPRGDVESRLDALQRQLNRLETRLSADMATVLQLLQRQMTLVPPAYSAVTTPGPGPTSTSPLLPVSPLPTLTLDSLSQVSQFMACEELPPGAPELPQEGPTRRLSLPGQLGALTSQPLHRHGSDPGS
Chain of Cytochrome P450 2D6 (P10635 whole entry): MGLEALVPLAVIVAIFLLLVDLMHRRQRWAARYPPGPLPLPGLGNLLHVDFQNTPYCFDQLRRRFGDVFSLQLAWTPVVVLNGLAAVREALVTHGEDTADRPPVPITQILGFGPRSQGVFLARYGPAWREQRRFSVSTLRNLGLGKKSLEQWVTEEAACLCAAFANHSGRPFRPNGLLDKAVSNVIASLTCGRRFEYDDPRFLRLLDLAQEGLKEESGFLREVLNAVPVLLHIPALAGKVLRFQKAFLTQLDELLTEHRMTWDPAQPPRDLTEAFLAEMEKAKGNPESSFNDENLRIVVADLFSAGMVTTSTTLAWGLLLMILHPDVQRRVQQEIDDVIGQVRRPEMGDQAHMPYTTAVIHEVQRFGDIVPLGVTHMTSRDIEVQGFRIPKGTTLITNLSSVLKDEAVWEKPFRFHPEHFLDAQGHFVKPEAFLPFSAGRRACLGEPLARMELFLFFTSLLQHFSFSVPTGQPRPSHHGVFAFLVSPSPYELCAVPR

As for `Cn1c(Cn2ccc(C(F)(F)F)c(Oc3cc(Cl)cc(C#N)c3)c2=O)n[nH]c1=O` [DORAVIRINE], the EC50 in series [1] was greater than 35 µM; in series [4], 0.0066 µM; in [5], 0.042 µM; in [6], 0.025 µM; in series [7], 0.5 µM; in series [8], 0.0075 µM. Besides, the figures for the half-maximal effective concentration (EC50) in series [9] and in series [10] were 17.4 µM and 0.142 µM, respectively. Besides, in series [2], the CC50 was determined as 293 µM. The selectivity ratio in series [3] is 22600. Besides, the IC50 in [11] came out at 0.044 µM; in series [12] it was 88 µM.

The molecule `COc1ccc2c(c1)[C@]13CCCC[C@@H]1[C@H](C2)N(C)CC3` [DEXTROMETHORPHAN] came in with an IC50 at Cytochrome P450 2D6 of 0.043 µM.

On to `Cn1c(Cn2ccc(C(F)(F)F)c(Oc3ccc(-c4ccc(C#N)cc4)c(F)c3)c2=O)n[nH]c1=O`, for which the EC50 is 1.28 µM in series [13]; greater than 35 µM in series [1]; 1.19 µM in series [4]; 3.65 µM in [5]; 19.4 µM in [6]; greater than 35 µM in [7]. Besides, the EC50 in series [8] is 1.96 µM; in [9], greater than 35 µM; in series [10] it was greater than 35 µM. Besides, the CC50 in [2] was 48.5 µM. Further, the selectivity ratio in series [3] came to 37.8. This molecule gave a half-maximal inhibitory concentration (IC50) in [11] of 1.52 µM.

In the case of `Cn1c(Cn2ccc(C(F)(F)F)c(Oc3c(F)cc(-c4cccc(C#N)c4)cc3F)c2=O)n[nH]c1=O`, the EC50 in series [13] is 1.14 µM; in [1] it was greater than 35 µM; in series [4], 1.85 µM; in series [5], 2.24 µM; in series [6], 8.64 µM; in [7] it was greater than 35 µM. Further, the EC50 in [8] is 3.06 µM; in series [9], greater than 35 µM; in series [10], greater than 35 µM. Also, the half-maximal cytotoxic concentration (CC50) in [2] was determined as 21.2 µM. In series [3], the selectivity ratio is 18.7. In addition, it took 2.57 µM to reach half-maximal inhibition in series [11] (IC50).

For the molecule `Cn1c(Cn2ccc(C(F)(F)F)c(Oc3ccc(-c4ccc(C#N)cc4)cc3F)c2=O)n[nH]c1=O`, the EC50 was 4.8 µM in series [13]; greater than 35 µM in series [1]; 4.6 µM in [4]; 6.13 µM in series [5]; 48.3 µM in series [6]; greater than 35 µM in series [7]. For the same molecule, the results for the EC50 in [8], in series [9] and in series [10] were 7.06 µM, greater than 35 µM and greater than 35 µM, respectively. In addition, the CC50 in [2] is 41.8 µM. For the same molecule, in series [3], the selectivity ratio was 8.72. In [11], this molecule yielded a half-maximal inhibitory concentration (IC50) of 6.35 µM.

Consider `Cc1cc(Oc2c(C(F)(F)F)ccn(Cc3n[nH]c(=O)n3C)c2=O)ccc1-c1cccc(C#N)c1`, for which the EC50 in [13] is 0.7 µM; in series [1] it was greater than 35 µM; in [4] it was 1.34 µM; in series [5], 2.09 µM; in series [6], 6.38 µM; in [7], 38.8 µM. The EC50 in [8] was 1.01 µM; in [9], greater than 35 µM; in series [10], 33 µM. The cytotoxic concentration (CC50) in [2] came out at 82.7 µM. In [3], the selectivity ratio came to 118. Besides, the half-maximal inhibitory concentration (IC50) in [11] was found to be 1.53 µM.

In the case of `Cc1cccc(-c2ccc(Oc3c(C(F)(F)F)ccn(Cc4n[nH]c(=O)n4C)c3=O)cc2C)c1`, the EC50 is 4.38 µM in series [13]; greater than 35 µM in series [1]; 3.23 µM in [4]; greater than 35 µM in series [5]; 7.51 µM in series [6]; greater than 35 µM in series [7]. Moreover, the EC50 in series [8], in [9] and in series [10] was greater than 35 µM throughout. In series [2], the CC50 turned out to be 23.8 µM. Further, the selectivity ratio in series [3] was 5.43. Besides, in series [11], inhibition was half-maximal at 6.54 µM (IC50).

On to `Cc1cc(-c2ccc(F)c(C#N)c2)ccc1Oc1c(C(F)(F)F)ccn(Cc2n[nH]c(=O)n2C)c1=O`, for which the concentration for a half-maximal effect (EC50) in series [13] is 1.83 µM; in series [1], greater than 35 µM; in series [4] it was 2.73 µM; in [5], 1.59 µM; in series [6], 6.03 µM; in series [7] it was greater than 35 µM. Further, the EC50 in series [8] was 2.31 µM; in [9] it was greater than 35 µM; in series [10], 8.59 µM. For the same molecule, the CC50 in series [2] amounted to 25 µM. The selectivity ratio in series [3] turned out to be 13.7. In [11], this molecule registered an IC50 of 5.49 µM.

Take `Cc1ccccc1-c1ccc(Oc2c(C(F)(F)F)ccn(Cc3n[nH]c(=O)n3C)c2=O)cc1F`: the EC50 is 3.93 µM in [13]; greater than 35 µM in [1]; 5.3 µM in series [4]; 7.78 µM in series [5]; 5.54 µM in series [6]; 104 µM in series [7]. In addition, the EC50 in series [8] was 4.51 µM; in [9], greater than 35 µM; in [10] it was 115 µM. Besides, in [2], the CC50 was determined as 33.8 µM. Besides, the selectivity ratio in series [3] came out at 8.6. The same molecule returned an IC50 in [11] of 3.21 µM.

Take `Cn1c(Cn2ccc(C(F)(F)F)c(Oc3cc(C#N)cc(-c4cccc(C#N)c4)c3)c2=O)n[nH]c1=O`: the EC50 was 0.023 µM in series [13]; greater than 35 µM in series [1]; 0.016 µM in series [4]; 0.026 µM in series [5]; 0.12 µM in series [6]; 0.36 µM in [7]. Further, the concentration giving a half-maximal response (EC50) in series [8] is 0.026 µM; in series [9], greater than 35 µM; in series [10] it was 0.26 µM. Also, the cytotoxic concentration (CC50) in series [2] worked out at 101 µM. In series [3], the selectivity ratio is 4500. In series [11], this molecule gave a concentration for half-maximal inhibition (IC50) of 0.21 µM.

Turning to `Cn1c(Cn2ccc(C(F)(F)F)c(Oc3cc(C#N)cc(-c4cccc(F)c4)c3)c2=O)n[nH]c1=O`, the concentration giving a half-maximal response (EC50) in [13] is 0.015 µM; in series [1] it was greater than 35 µM; in series [4], 0.021 µM; in series [5] it was 0.012 µM; in series [6], 0.054 µM; in series [7], 0.83 µM. Besides, the half-maximal effective concentration (EC50) was 0.021 µM in series [8], greater than 35 µM in series [9] and 0.31 µM in [10]. Further, the CC50 in series [2] came out at 19.1 µM. Also, the selectivity ratio in series [3] was 1270. The molecule further showed a concentration for half-maximal inhibition (IC50) in [11] of 0.056 µM.

Take `Cn1c(Cn2ccc(C(F)(F)F)c(Oc3ccc(-c4cccc(C#N)c4)cc3Cl)c2=O)n[nH]c1=O`: the concentration for a half-maximal effect (EC50) in series [13] was 4.07 µM; in series [1], greater than 35 µM; in [4], 2.35 µM; in series [5], 2.92 µM; in series [6], greater than 35 µM; in series [7], greater than 35 µM. Further, the 50% effective concentration (EC50) was 3.56 µM in [8], greater than 35 µM in [9] and greater than 35 µM in series [10]. In addition, the CC50 in series [2] was determined as 22.9 µM. Besides, the selectivity ratio in [3] was determined as 5.62. In series [11], the IC50 was determined as 7.21 µM.
